Test results from patent US8383375B2 (Posco, priority 2004, dated 2013).

T1: Ss gluconate dehydratase (Saccharolobus solfataricus, UniProt Q97U27)
T1 sequence (Q97U27 1-395): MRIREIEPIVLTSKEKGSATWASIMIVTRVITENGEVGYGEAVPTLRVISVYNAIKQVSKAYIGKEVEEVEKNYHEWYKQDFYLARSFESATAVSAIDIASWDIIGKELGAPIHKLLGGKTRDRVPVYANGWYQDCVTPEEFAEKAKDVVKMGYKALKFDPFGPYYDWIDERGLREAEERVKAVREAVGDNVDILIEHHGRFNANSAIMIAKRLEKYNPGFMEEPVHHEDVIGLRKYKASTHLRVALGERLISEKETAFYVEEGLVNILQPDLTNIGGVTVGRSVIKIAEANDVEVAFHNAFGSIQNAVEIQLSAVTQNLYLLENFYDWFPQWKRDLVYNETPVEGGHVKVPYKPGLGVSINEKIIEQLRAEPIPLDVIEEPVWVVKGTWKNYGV

B1: gluconate dehydratase: thermostable gluconate dehydratase purified from Sulfolobus solfataricus P2, SEQ ID NO:2, octamer (protein, listed as Sulfolobus solfataricus)
chain: T1 sequence (Q97U27 1-395)
modifications: octamer

Tests used:
Ss gluconate dehydratase [1] = molecular target: T1, Ss gluconate dehydratase; test: Substrate specificities of Ss gluconate dehydratase (semicarbazide method); type: biochemical, Sulfolobus solfataricus; design: made in house; host or cells: Sulfolobus solfataricus cells (native source, not recombinant); conditions: for Reaction on substrate / Relative activity (%): 10 mM aldonic acid, 1 mM CoCl2, 50 mM Tri-HCl buffer pH 7.0, 30 min, 78 C; for Relative activity (%): relative to D-gluconate
Method: (§1) The semicarbazide method was performed as follows: an enzyme reaction of a total volume a 400 μl was incubated at 78° C. in 50 mM Tris-HCl buffer, pH 7.0, with 10 mM gluconate and an enzyme solution. After 30 min, the enzyme reaction was stopped by the addition of 100 μl 2.0 M HCl. To this solution, 300 μl of semicarbazide solution (1.0% (w/v) semicarbazide hydrochloride and 1.5% (w/v) sodium acetate dissolved in distilled water) was added and incubated at 30° C. for 15 min. The final reaction mixture was diluted with 500 μl distilled water and then measured at 250 nm. The absorbance coefficient of the semicarbazone formation toward 2-keto-3-deoxy gluconate (KDG) was taken to be 0.571×10^3 M^−1 cm^−1.
(§2) For analysis of substrate specificities of gluconate dehydrates, a 10 mM solution of each aldonic acid containing carbon chains ranging from C4 to C7 were incubated together with 40 μg/mL of purified protein. […] All experiments were performed in three plicate.

Ss gluconate dehydratase [2] = molecular target: T1, Ss gluconate dehydratase
Method: as §1, §2
Biochemical and kinetic parameters for the enzyme were determined using the assay method described above under standard conditions.
Values for Vmax and Km were determined from Lineweaver bulk plots. The rate dependence on substrate concentration followed Michaelis-Meten kinetics.

[3] = type: physicochemical
Method: Enzyme thermostability was determined at 80, 90, and 100° C. by incubating enzyme solution (50 μg/ml) in 50 mM Tri-HCl (pH 7.2). At an appropriate time, samples were taken and completely cooled on ice and then measured for residual activities under standard conditions. The thermostability of purified gluconate dehydrates was measured at 80, 90, and 100° C.

[4] = Temperature profile of enzyme activity; type: biochemical
Method: The temperature profile for enzyme activity was determined between 40 and 100° C.

Molecule	Reaction on substrate (Ss gluconate dehydratase [1])	Relative activity (%) (Ss gluconate dehydratase [1])	also measured
O=C(O)[C@@H](O)[C@@H](O)[C@H](O)[C@H](O)CO [D-mannonate]	No reaction on the following substrates: L-arabonate, D-xylonate, D-galacturonate, D-glucitol, D-mannonate, and D, L-glycerate.	–	–
O=C[C@H](O)[C@@H](O)[C@@H](O)[C@H](O)C(=O)O [D-galacturonate]	No reaction on the following substrates: L-arabonate, D-xylonate, D-galacturonate, D-glucitol, D-mannonate, and D, L-glycerate.	–	–
O=C(O)[C@@H](O)[C@H](O)[C@H](O)CO [D-Arabonate]	–	0.7%	–
O=C(O)[C@H](O)[C@@H](O)[C@H](O)CO [D-xylonate]	No reaction on the following substrates: L-arabonate, D-xylonate, D-galacturonate, D-glucitol, D-mannonate, and D, L-glycerate.	–	–
L-isovalerate [D, L-isovalerate]	–	0.25%	–
O=C(O)[C@H](O)[C@@H](O)[C@@H](O)CO [L-arabonate]	No reaction on the following substrates: L-arabonate, D-xylonate, D-galacturonate, D-glucitol, D-mannonate, and D, L-glycerate.	–	–
D-Galactoheptonate	–	1.6%	–
O=C(O)[C@H](O)[C@@H](O)[C@H](O)[C@H](O)CO [D-Gluconate]	–	100.0%	Km (Ss gluconate dehydratase [2]; D-gluconate 0.1 to 40 mM as substrate, Lineweaver-Burk plots): 16.7 mM; turnover number (kcat) (Ss gluconate dehydratase [2]; D-gluconate as substrate): 333 s⁻¹; Vm (Ss gluconate dehydratase [2]; D-gluconate as substrate, Lineweaver-Burk plots): 34.5 units/mg; conversion (Ss gluconate dehydratase [1]; 10 mM substrate, 40 μg/mL purified protein, standard condition): 100%
O=C(O)C(O)CO [D, L-glycerate]	No reaction on the following substrates: L-arabonate, D-xylonate, D-galacturonate, D-glucitol, D-mannonate, and D, L-glycerate.	–	–
O=C(O)[C@H](O)[C@@H](O)[C@@H](O)[C@H](O)CO [D-Galactonate]	–	2.8%	–
OC[C@@H](O)[C@@H](O)[C@H](O)[C@@H](O)CO [D-glucitol]	No reaction on the following substrates: L-arabonate, D-xylonate, D-galacturonate, D-glucitol, D-mannonate, and D, L-glycerate.	–	–
B1	–	–	enzyme activity after incubation at 90° C. ([3]; 90° C., 2 hour incubation, 50 μg/ml enzyme in 50 mM Tri-HCl pH 7.2): below 50%; thermostability at 80° C. ([3]; pH 7.2): very stable over 2 hours; Enzyme activity below 60° C. [4]: not detectable
